The conditions of series [1]: UV-vis 263 nm, saturated solution.
Text: According to the Lambert-Beer Law, the concentration of sorbic acid is proportional to absorption intensity (Abs(Intesity)=K [Sorbic Acid]).
For series [2] the following is noted: cited from earlier work.
[3] abbreviates: aqueous solution, pH between 2.5 and 4, about 20 C.

Like-named read-outs stand apart in the source and are kept apart here.

As to `C/C=C/C=C/C(=O)[O-].[K+]` [Potassium Sorbate], the “Abs (pH 2.5)” value in series [1] (aged at 40 F. 0 day) is reported as 1.644; in series [1] (aged at 40 F. 7 days), 1.357. Besides, the “Abs (pH 3.0)” value in series [1] (aged at 40 F. 7 days) came to 1.24. Further, the “Stability (crystals)” value is, setting by setting: (aged at 40 F. 0 day) “no crystals”; (aged at 40 F. 7 days) “lot of crystals”.
For the compound `C/C=C/C=C/C(=O)O` [sorbic acid], the “solubility of sorbic acid in high acid syrup” value in series [2] (60% brix syrup) is 0.08%. Also, in series [2] (setting [3]), the “sorbate concentration at which sorbic acid precipitation begins” value is reported as “about 500 ppm” and the “sorbate concentration at which the tendency to precipitate is clear” value is 1300 ppm.

Values taken from patent US11944111B2, “Stabilizing sorbic acid in beverage syrup” (PepsiCo, Inc., priority 2015, dated 2024).
